Experimental data from ChEMBL document CHEMBL4043071, “Neuroprotective Caffeoylquinic Acid Derivatives from the Flowers of Chrysanthemum morifolium” (J Nat Prod, 2017).
Activity calls are given as the source filed them. No cut-off for these calls is given here.

Key:
[1] = tested on: SH-SY5Y; experiment: Neuroprotective activity in human SH-SY5Y cells assessed as reduction in glutamate-induced cytotoxicity at 10 uM relative to untreated control; type: functional, cell-based
[2] = tested on: SH-SY5Y; experiment: Neuroprotective activity in human SH-SY5Y cells assessed as reduction in oxygen-glucose deprivation-induced cytotoxicity at 10 uM relative to untreated control; type: functional, cell-based
[3] = tested on: SH-SY5Y; experiment: Neuroprotective activity in human SH-SY5Y cells assessed as reduction in hydrogen peroxide-induced cytotoxicity by measuring cell viability level at 10 uM (reference value: 50.7+/- 2.6%); type: functional
[4] = tested on: SH-SY5Y; experiment: Cytotoxicity against human SH-SY5Y cells assessed as reduction in cell viability level at 10 uM relative to untreated control; type: cell-based

Row | Compound | Activity [1] | Activity [2] | Activity [3] | Activity [4]
1 | O=c1cc(-c2ccc(O[C@@H]3O[C@H](CO)[C@@H](O)[C@H](O)[C@H]3O)c(O)c2)oc2cc(O[C@@H]3O[C@H](CO)[C@@H](O)[C@H](O)[C@H]3O)cc(O)c12 | inactive | inactive | – | –
2 | O=c1cc(-c2ccc(O)cc2)oc2cc(O[C@@H]3O[C@H](CO)[C@@H](O)[C@H](O)[C@H]3O)cc(O)c12 | inactive | inactive | – | –
3 | O=C(/C=C/c1ccc(O)c(O)c1)O[C@@H]1[C@H](O)C[C@@](O)(C(=O)O)C[C@H]1OC(=O)[C@@H]1[C@@H]2O[C@@](CO)(C=CC2=O)[C@H]1c1ccc(O)c(O)c1 | inactive | inactive | 76.7% | –
4 | O=C(/C=C/c1ccc(O)c(O)c1)O[C@@H]1[C@H](O)C[C@@](O)(C(=O)O)C[C@H]1OC(=O)/C=C/c1ccc(O)c(O)c1 | inactive | inactive | 75.2% | –
5 | O=C(/C=C/c1ccc(O)c(O)c1)O[C@@H]1C[C@](O)(C(=O)O)C[C@@H](O)[C@H]1O | inactive | inactive | inactive | –
6 | CC(=O)OC[C@H]1O[C@@H](Oc2cc(O)c3c(=O)cc(-c4ccc(O)c(O)c4)oc3c2)[C@H](O)[C@@H](O)[C@@H]1O | inactive | inactive | – | –
7 | O=C(/C=C/c1ccc(O)c(O)c1)O[C@@H]1C[C@@](OC(=O)/C=C/c2ccc(O)c(O)c2)(C(=O)O)C[C@@H](O)[C@@H]1O [CYNARIN] | inactive | inactive | 77.2% | –
8 | CCCC[C@@H]1OC(=O)c2ccccc21 [(3S)-BUTYLPHTHALIDE] | – | – | 73.9% | –
9 | CC(=O)O[C@@H]1[C@H](O)C[C@@](O)(C(=O)O)C[C@H]1OC(=O)/C=C/c1ccc(O)c(O)c1 | inactive | inactive | – | Toxic
10 | COc1ccc(-c2cc(=O)c3c(O)cc(O[C@@H]4O[C@H](CO)[C@@H](O)[C@H](O)[C@H]4O)cc3o2)cc1O | inactive | inactive | – | –
11 | O=C(/C=C/c1ccc(O)c(O)c1)O[C@@H]1[C@H](O)C[C@@](O)(C(=O)O)C[C@H]1OC(=O)[C@@H]1[C@@H](c2ccc(O)c(O)c2)[C@@]2(CO)C=CC(=O)[C@@H]1O2 | inactive | inactive | 78.4% | –
12 | O=C(/C=C/c1ccc(O)c(O)c1)O[C@@H]1C[C@@](O)(C(=O)O)C[C@@H](O)[C@@H]1OC(=O)[C@@H]1[C@@H](c2ccc(O)c(O)c2)[C@@]2(CO)C=CC(=O)[C@@H]1O2 | inactive | inactive | 75.6% | –
13 | O=c1cc(-c2ccc(O)c(O)c2)oc2cc(O[C@@H]3O[C@H](CO)[C@@H](O)[C@H](O)[C@H]3O)cc(O)c12 [GALUTEOLIN] | inactive | inactive | 87.6% | –
14 | O=C(O)[C@H]1O[C@@H](Oc2cc(O)c3c(=O)cc(-c4ccc(O)c(O)c4)oc3c2)[C@H](O)[C@@H](O)[C@@H]1O | inactive | inactive | 80.9% | –
